Test results as given in patent US10782295B2, “Cysteine-reactive ligand discovery in proteomes” (THE SCRIPPS RESEARCH INSTITUTE, priority 2013, dated 2020).

Key:
CKAP4 = target: T1, CKAP4 (Homo sapiens, UniProt Q07065); test: competitive isoTOP-ABPP, MDA-MB-231 soluble proteome; assay type: binding; details: 100 μM LDE, 60 min; peptide SSSSSSASAAAAAAAASSSASC*SR
T1 construct: directly in native proteomes; endogenous in cells; host or cells: MDA-MB-231
T1 sequence (Q07065 1-602): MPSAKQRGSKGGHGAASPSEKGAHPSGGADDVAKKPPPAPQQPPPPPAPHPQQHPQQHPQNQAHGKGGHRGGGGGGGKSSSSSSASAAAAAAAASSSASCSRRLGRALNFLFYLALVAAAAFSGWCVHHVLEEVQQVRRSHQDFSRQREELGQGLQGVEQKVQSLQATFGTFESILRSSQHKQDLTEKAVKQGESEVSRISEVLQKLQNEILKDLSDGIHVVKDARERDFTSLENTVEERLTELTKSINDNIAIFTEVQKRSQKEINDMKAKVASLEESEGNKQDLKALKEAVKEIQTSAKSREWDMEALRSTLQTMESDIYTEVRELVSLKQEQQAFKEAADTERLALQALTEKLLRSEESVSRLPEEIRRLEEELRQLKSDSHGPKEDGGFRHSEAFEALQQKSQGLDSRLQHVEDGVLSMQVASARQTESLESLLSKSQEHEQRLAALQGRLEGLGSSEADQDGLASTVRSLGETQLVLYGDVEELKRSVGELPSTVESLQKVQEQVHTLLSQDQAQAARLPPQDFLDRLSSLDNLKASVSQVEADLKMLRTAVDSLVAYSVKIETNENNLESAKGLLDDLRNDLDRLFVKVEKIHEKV

MAPK9 = target: T2, MAPK9 (Homo sapiens, UniProt P45984); test: as above; assay type: binding; details: 100 μM LDE, 60 min; peptide TLEEFQDVYLVMELMDANLC*QVIHMELDHER
T2 construct: directly in native proteomes; endogenous in cells; host or cells: MDA-MB-231
T2 sequence (P45984 whole entry): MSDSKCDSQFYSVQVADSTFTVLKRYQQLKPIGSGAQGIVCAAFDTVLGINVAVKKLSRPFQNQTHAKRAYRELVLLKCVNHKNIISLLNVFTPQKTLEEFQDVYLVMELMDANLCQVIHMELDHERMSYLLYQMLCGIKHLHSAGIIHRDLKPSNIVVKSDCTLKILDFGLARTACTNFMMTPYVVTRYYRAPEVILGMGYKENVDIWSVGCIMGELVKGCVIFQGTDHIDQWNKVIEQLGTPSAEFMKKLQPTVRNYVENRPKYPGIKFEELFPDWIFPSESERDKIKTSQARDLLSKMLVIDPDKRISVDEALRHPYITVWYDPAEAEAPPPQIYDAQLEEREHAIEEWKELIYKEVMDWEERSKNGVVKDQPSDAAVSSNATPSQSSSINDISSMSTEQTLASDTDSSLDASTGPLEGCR

Row | Compound | R value (isoTOP-ABPP ratio heavy/light) for IA-labeled cysteine of CKAP4 (CKAP4) | R value (isoTOP-ABPP ratio heavy/light) for IA-labeled cysteine of MAPK9 (MAPK9)
1 | CCCCCCCCCCCCC/C=C/C=O [2-HD, 2-trans-hexadecenal] | 1.08 | 1.14
2 | CCCCCC(O)/C=C/C=O (stereo not drawn) [4-HNE, 4-Hydroxynonenal] | 7.73 | 5.08
3 | CCCCC/C=C/C=C1/C(=O)C=C[C@@H]1C/C=C\CCCC(=O)O [PGJ2, 15-deoxy-Δ12,14-prostaglandin J2] | 3.33 | 1.78
